Experimental findings from article PMC6381024, “Probing Anti-inflammatory Properties Independent of NF-κB Through Conformational Constraint of Peptide-Based Interleukin-1 Receptor Biased Ligands” (Frontiers in Chemistry, 2019) are described below.

Experiment [1] deals with NF-κB. As to the kind of experiment: NF-κB QUANTI-Blue assay (secreted alkaline phosphatase reporter) in HEK-Blue IL-33/IL-1β cells. Type of experiment: cell-based. Set-up: key to Nf-κB (heatmap grade of inhibition): 0: No effect; No effect 01234 Maximum inhibition/efficacy; No effect 01234 Maximum inhibition/efficacy; No effect 01234 Maximum inhibition/efficacy; 4: Maximum inhibition/efficacy. As to conditions: for Nf-κB (heatmap grade of inhibition): HEK-Blue cells, peptide 10^-6 M or Kineret 1.0 mg/mL 30 min, then IL-1β 100 ng/mL 4 h, QUANTI-Blue. As for the experimental part: HEK-Blue IL-33/IL-1β cells (InvivoGen) were pretreated with peptides 1, 5, or 6 (10^−6M) or Kineret (1.0 mg/mL) for 30 min, followed by treatment with a constant concentration of IL-1β (100 ng/mL), and then incubated at 37°C for 4 h. Levels of secreted alkaline phosphatase in cell culture supernatant were determined using the QUANTI-Blue assay, according to the manufacturer's instructions (InvivoGen). Alkaline phosphatase activity was assessed by measuring the optical density (OD) at 620–655 nm with a micro plate reader (EnVision Multilabel reader; PerkinElmer, Waltham, MA). Data are representative of 3 experiments (each with n = 4 per treatment group).
Figure 6 The effects of peptides 1, 5, and 6 on IL-1-induced NF-κB signaling. NF-κB activation was quantified on HEK-blue cells using the QUANTI-blue assay, which spectroscopically detects secreted alkaline phosphatase, a reporter product from the transcription of the NF-κB gene. HEK-blue cells were pre-incubated with peptides 1, 5, and 6 or vehicle, then stimulated with IL-1β for 4 h. Data shown represents the average of 3 experiments, each with n = 4 per treatment group. ^****p < 0.0001 compared to group treated only with IL-1β. Treatment groups that are not labeled with asterisks are statistically non-significant compared to group treated only with IL-1β.

Experiment [2] relates to p38 MAPK. As to the kind of experiment: IL-1β-induced p38 MAPK phosphorylation, Western blot in RAW Blue cells. The format is cell-based. Details: key to Western Blot p38 (heatmap grade of inhibition): 0: No effect; No effect 01234 Maximum inhibition/efficacy; No effect 01234 Maximum inhibition/efficacy; No effect 01234 Maximum inhibition/efficacy; 4: Maximum inhibition/efficacy. The settings on record: for Western Blot p38 (heatmap grade of inhibition): RAW Blue cells, peptide 10^-6 M or Kineret 1.0 mg/mL 30 min, then IL-1β 100 ng/mL 15 min; for Inhibition of IL-1β-induced p38 phosphorylation: RAW-blue cells, 10^-6 M, 30 min, then IL-1β 15 min. As for the experimental part: RAW Blue cells (Invivogen) were grown under standard conditions (37°C, 5% CO2) and maintained under passage number 15. Cells were equilibrated with 1, 5, or 6 (10^−6M) or Kineret (1.0 mg/mL) for 30 min, after which time they were exposed to IL-1β (100 ng/mL) for 15 min. Cells were harvested and lysed on ice for 30 min using a radioimmunoprecipitation assay buffer (Cell Signaling) supplemented with 1 mM phenylmethylsulfonyl fluoride (PMSF) and cOmplete™ EDTA-free protease inhibitor cocktail (Roche, Mannheim, Germany, prepared according to the manufacturer's instructions). Protein concentrations were determined using a Bradford protein assay (Bio-Rad) on 96-well plates with a microplate reader (EnVision Multilabel reader) measuring OD at […]. Bovine serum albumin serial dilutions were used to generate a standard curve. Lysates were then mixed with 4X reducing sample buffer (Bio-Rad).
Lysates were loaded (30 μg protein per well) in a 5% acrylamide stacking gel, and samples were electrophoresed in a 12% acrylamide resolving gel for 1.5 h at 120 V, followed by a 1 h transfer onto polyvinylidene difluoride (PDVF) membranes at 100 V. Membranes were blocked and incubated with 1:1,000 dilution of primary antibody and 1:20,000 dilution of secondary antibodies according to the manufacturer's instructions. Antibodies used were for phospho-p38 MAPK (Cell Signaling, #9211), p38 MAPK (Cell Signaling, #9212), SAPK/JNK (Cell Signaling, #9252), phospho-SAPK/JNK (Cell Signaling, #9251), ROCK2 (Thermo Fisher Scientific PA5-21131), phospho-ROCK2 (Thermo Fisher Scientific PA5-34895), and goat anti-rabbit conjugated to horseradish peroxidase (Abcam, ab6721). Membranes were imaged using an Amersham Imager 600 (GE Healthcare) using Clarity Western ECL Substrate (Bio-Rad). The intensity of protein bands was quantified using ImageJ and standardized using total (phosphorylated + non-phosphorylated) protein content. Data are representative of three independent experiments.
Figure 7 The effects of peptides 1, 5, and 6 on IL-1β-induced phosphorylation of JNK, ROCK2, and p38. Graphical representations of band density analysis of Western Blots, sorted into columns based on protein of interest (JNK, ROCK2, or p38) and rows by peptide configuration [(3R-) or (3S)]. RAW-blue cells were pretreated with peptides 1, 5, 6, Kineret, or vehicle for 30 min and then stimulated with IL-1β for 15 min. Images of representative Western Blots can be found in the Supplementary Figure 1. Results shown are the average of 3 independent experiments: ^*p < 0.05, ^**p < 0.01, ^***p < 0.001, ^****p < 0.0001 compared to group treated only with IL-1β. Treatment groups that are not labeled with asterisks are statistically non-significant compared to group treated only with IL-1β.
A general note: In western blotting, separated proteins are transferred to a membrane and probed.

As for “Kineret: FDA-approved recombinant IL-1 receptor antagonist”, the “Nf-κB (heatmap grade of inhibition)” value in experiment [1] is on record as 4. In experiment [1] (HEK-blue cells, peptide 10^-6 M or Kineret 1.0 mg/mL, IL-1β 4 h, QUANTI-blue), the “Inhibition of IL-1-induced NF-κB signaling” value is “inhibited NF-κB”. In addition, the “Western Blot p38 (heatmap grade of inhibition)” value in experiment [2] stood at 4.
Turning to “H-D-Arg-D-Tyr-(S)-Agl-D-Val-D-Glu-D-Leu-D-Ala-NH2 [[(3S)-Agl^3]-1]”, the “Nf-κB (heatmap grade of inhibition)” value in experiment [1] is reported as 0. Also, in experiment [2], the “Western Blot p38 (heatmap grade of inhibition)” value came out at 0 and the “Inhibition of IL-1β-induced p38 phosphorylation” value is “inactive”.
In the case of “H-D-Arg-D-Tyr-(3R,4R)-Hgl-D-Val-D-Glu-D-Leu-D-Ala-NH2 [[(3R,4R)-Hgl^3]-1]”, the “Nf-κB (heatmap grade of inhibition)” value in experiment [1] worked out at 0. In experiment [2], the “Western Blot p38 (heatmap grade of inhibition)” value was 0 and the “Inhibition of IL-1β-induced p38 phosphorylation” value was “inactive”.
In the case of “H-D-Arg-D-Tyr-(3R,4R)-Hgl-(S)-Val-D-Glu-D-Leu-D-Ala-NH2 [[(3R,4R)-Hgl^3-(S)-Val^4]-1]”, the “Nf-κB (heatmap grade of inhibition)” value in experiment [1] was 0. Besides, in experiment [2], the “Western Blot p38 (heatmap grade of inhibition)” value is recorded as 3.
Turning to “H-D-Arg-D-Tyr-(R)-Agl-D-Val-D-Glu-D-Leu-D-Ala-NH2 [[(3R)-Agl^3]-1]”, the “Nf-κB (heatmap grade of inhibition)” value in experiment [1] came out at 0. In experiment [2], the “Western Blot p38 (heatmap grade of inhibition)” value is on record as 0 and the “Inhibition of IL-1β-induced p38 phosphorylation” value was “inactive”.
For the substance “H-D-Arg-D-Tyr-(R)-Agl-(S)-Val-D-Glu-D-Leu-D-Ala-NH2 [[(3R)-Agl^3-(S)-Val^4]-1]”, in experiment [1], the “Nf-κB (heatmap grade of inhibition)” value is 0. Also, in experiment [2], the “Western Blot p38 (heatmap grade of inhibition)” value is recorded as 4 and the “Inhibition of IL-1β-induced p38 phosphorylation” value is reported as “inhibited most effectively”.
As for “H-D-Arg-D-Tyr-(3S,4R)-Hgl-D-Val-D-Glu-D-Leu-D-Ala-NH2 [[(3S,4R)-Hgl^3]-1]”, the “Nf-κB (heatmap grade of inhibition)” value in experiment [1] is given as 0. In addition, the “Western Blot p38 (heatmap grade of inhibition)” value in experiment [2] stood at 3.
On the same counts, the results for “H-D-Arg-D-Tyr-(3R,4S)-Hgl-(S)-Val-D-Glu-D-Leu-D-Ala-NH2 [[(3R,4S)-Hgl^3-(S)-Val^4]-1]” are 0 and 2.
For the substance “H-D-Arg-D-Tyr-(S)-Agl-(S)-Val-D-Glu-D-Leu-D-Ala-NH2 [[(3S)-Agl^3-(S)-Val^4]-1]”, in experiment [1], the “Nf-κB (heatmap grade of inhibition)” value is recorded as 0. Also, the “Western Blot p38 (heatmap grade of inhibition)” value in experiment [2] is on record as 2.
On to “H-D-Arg-D-Tyr-(3R,4S)-Hgl-D-Val-D-Glu-D-Leu-D-Ala-NH2 [[(3R,4S)-Hgl^3]-1]”, for which, in experiment [1], the “Nf-κB (heatmap grade of inhibition)” value worked out at 0. In experiment [2], the “Western Blot p38 (heatmap grade of inhibition)” value amounted to 4 and the “Inhibition of IL-1β-induced p38 phosphorylation” value is “inhibited most effectively”.
Consider “H-D-Arg-D-Tyr-D-Thr-D-Val-D-Glu-D-Leu-D-Ala-NH2 [Peptide 1]”, for which, in experiment [1], the “Nf-κB (heatmap grade of inhibition)” value was found to be 0. Also, in experiment [2], the “Western Blot p38 (heatmap grade of inhibition)” value is on record as 4 and the “Inhibition of IL-1β-induced p38 phosphorylation” value was “inhibited the effects of all three kinases”.
